# According to patent EP0308913A2, “2,6-Methanopyrrolo-3-benzazocines, a process and intermediates for their preparation and their use as medicaments” (HOECHST-ROUSSEL PHARMACEUTICALS INCORPORATED, priority 1987, dated 1989):
# Tested on: mice
# Experiment: modified phenyl-p-quinone writhing assay in mice (analgesia)
# Format: in vivo
# Conditions: Mus musculus, sc; male CD-1 mice; test compound s.c. at peak time before phenyl-p-quinone; calculated ED50 by linear regression; read-out: Analgesic Activity (Inhibition of Writhing ED5Ø (mg/kg, s.c.)) (converted)
# Protocol: The 2,6-methanopyrrolo-3-benzazocines of this invention are useful as analgetics due to their ability to alleviate pain in mammals. The procedure employed to determine analgetic utility is a modification of the phenyl-p-quinone writhing assay in mice, a standard assay for analgesia [Proc. Soc. Exptl. Bio. Med., 95 729 (1957)]. In the modified procedure phenyl-p-benzoquinone (Eastman, 12.5 mg) is dissolved in 5 ml of 95% ethanol and the solution is diluted to a total volume of 100 ml with distilled water. The solution is administered to the subject mice […] at a dose of 10 ml per kg of body weight. A characteristic "writh", an inward rotation of one or more feet with twisting and turning of the trunk, drawing in of the abdominal wall, lordosis and arching of the back, is produced.
# A total of 28 male mice (Charles River, CD-1), weighing 18 to 30 grams, are employed for a time response. The subject animals receive food and water ad libitum. Test compounds are dissolved in distilled water, or suspended in distilled water containing one drop of a suitable surfactant, such as Tween-80.
# Four groups of five animals (20 animals) are given the test compound subcutaneously at 15, 30, 45 and 60 minutes prior to administration of the phenyl-p-quinone. Four control groups of 2 animals (8 animals) receive an equal volume of the vehicle. After the administration of the phenyl-p-quinone, the mice are placed separately in one liter beakers, and after five minutes, are observed for ten minutes. The number of writhes for each animal is recorded. The following formula is used to compute the percent inhibition: [formula]
# The time period with the greatest percent of inhibition is considered the peak time. A dose range determination is generally reserved for those compounds which inhibit writhing by greater than 65-70% at the screening dose.
# A dose range determination is run in the same manner as the time response except 10 animals per group are tested at the peak time of test drug activity. Fifty animals, 4 test drug groups, and a vehicle control are employed. Animals are dosed and tested in a randomized manner. A calculated ED₅₀, i.e., the dose at which 50% inhibition of writhing is produced, is determined by a computer linear regression analysis. The calculated subcutaneous (s.c.) dose effecting an approximately 50% inhibition of writhing (ED₅₀) in mice produced in this assay is as follows: […]
row,SMILES,ED50
1,"CC1C2Cc3cc4c(cc3C1(C)CCN2C)NCC4 (stereo not shown) [1,2,3,4,5,6,9,10-Octahydro-3,6,12-trimethyl-2,6-methano-8H-pyrrolo[2,3-i][3]benzazocine]",35.5 mg/kg
2,"CC1C2Cc3cc4cc[nH]c4cc3C1(C)CCN2C (stereo not shown) [1,2,3,4,5,6-Hexahydro-3,6,12-trimethyl-2,6-methano-8H-pyrrolo[2,3-i][3]benzazocine]",29.5 mg/kg
3,"CC1C2Cc3c(ccc4[nH]ccc34)C1(C)CCN2C (stereo not shown) [1,2,3,4,5,6-Hexahydro-3,6,12-trimethyl-2,6-methano-9H-pyrrolo[2,3-j][3]benzazocine]",30.4 mg/kg
4,"CC1C2Cc3c(ccc4c3C(=O)C(=O)N4)C1(C)CCN2C (stereo not shown) [1,2,3,4,5,6-Hexahydro-3,6,12-trimethyl-2,6-methanopyrrolo[2,3-j][3]benzazocine-10,11(9H)-dione]",24.3 mg/kg
5,"CC1C2Cc3ccc4[nH]ccc4c3C1(C)CCN2C (stereo not shown) [1,2,3,4,5,6-hexahydro-3,6,12-trimethyl-2,6-methano-9H-pyrrolo[3,2-h][3]benzazocine]",0.6 mg/kg
6,"CC1C2Cc3cc4[nH]ccc4cc3C1(C)CCN2C (stereo not shown) [1,2,3,4,5,6-hexahydro-3,6,12-trimethyl-2,6-methano-10H-pyrrolo[3,2-i][3]benzazocine]",1.8 mg/kg
7,"CC(C)=CCN1CCC2(C)c3cc(O)ccc3CC1C2C (stereo not shown) [pentazocine, reference compound]",1.3 mg/kg
